Test results published in US20230365570A1, “COMPOUNDS WITH GLUCOCORTICOID SPARING EFFECTS AND USES THEREOF” (The Regents of the University of California, priority 2020, published 2023).
pIC50: −log10 of the molar value.

Columns and labels:
THP-1 cells = assay: IL-1ß stimulated TNF release by THP-1 cells; format: cell-based, human; conditions: THP-1 cells, IL-1ß 2 ng/ml, overnight (FIG. 3D)
Procedure: (§1) THP-1 cells (10^5 cells/200 μL/well) and RA FLS (104/200 μL/well) were plated in 96 well plates and pre-treated with compound or vehicle for 1 h and then stimulated with either LPS (10 ng/ml), 1L-1ß (2 ng/ml) or TNF (2 ng/ml for THP-1 and 1 ng/ml for RA FLS). After 18 h of incubation, supernatants were collected and the levels of cytokines and chemokines in the culture supernatants were measured by ELISA according to the manufacturer's protocols (R&D systems, Minneapolis, MN).
The lead compounds belonging to chemotypes 1, 3, and 5 were tested for potency in suppressing chemokine and cytokine production by THP-1 cells in the presence of different inflammatory stimuli. The production of CXCL8 induced by either LPS (10 ng/ml), IL-1ß (2 ng/ml), or TNF (2 ng/ml) and TNF induced by IL-1ß (2 ng/ml) was assessed using serially diluted compounds. The compounds except 1-2 reduced the level of CXCL8 production stimulated by LPS in a dose dependent manner (FIG. 3A). However, the compounds from chemotype 5 enhanced CXCL8 release by THP-1 cells when stimulated with IL-111, or TNF (FIGS. 3B, C). […] The 1Cs0 for 1-1, 1-2 and 3-1 for IL-1ß stimulated CXCL8 release included 400, 1770, and 2020 nM, respectively, (FIG. 3C).

[1] = molecular target: metabotropic glutamate receptor subtype 4 (mGluR4) (Homo sapiens, UniProt Q14833); conditions: previously described in another system; cited from earlier work
Sequence of metabotropic glutamate receptor subtype 4 (mGluR4) (Q14833 33-912): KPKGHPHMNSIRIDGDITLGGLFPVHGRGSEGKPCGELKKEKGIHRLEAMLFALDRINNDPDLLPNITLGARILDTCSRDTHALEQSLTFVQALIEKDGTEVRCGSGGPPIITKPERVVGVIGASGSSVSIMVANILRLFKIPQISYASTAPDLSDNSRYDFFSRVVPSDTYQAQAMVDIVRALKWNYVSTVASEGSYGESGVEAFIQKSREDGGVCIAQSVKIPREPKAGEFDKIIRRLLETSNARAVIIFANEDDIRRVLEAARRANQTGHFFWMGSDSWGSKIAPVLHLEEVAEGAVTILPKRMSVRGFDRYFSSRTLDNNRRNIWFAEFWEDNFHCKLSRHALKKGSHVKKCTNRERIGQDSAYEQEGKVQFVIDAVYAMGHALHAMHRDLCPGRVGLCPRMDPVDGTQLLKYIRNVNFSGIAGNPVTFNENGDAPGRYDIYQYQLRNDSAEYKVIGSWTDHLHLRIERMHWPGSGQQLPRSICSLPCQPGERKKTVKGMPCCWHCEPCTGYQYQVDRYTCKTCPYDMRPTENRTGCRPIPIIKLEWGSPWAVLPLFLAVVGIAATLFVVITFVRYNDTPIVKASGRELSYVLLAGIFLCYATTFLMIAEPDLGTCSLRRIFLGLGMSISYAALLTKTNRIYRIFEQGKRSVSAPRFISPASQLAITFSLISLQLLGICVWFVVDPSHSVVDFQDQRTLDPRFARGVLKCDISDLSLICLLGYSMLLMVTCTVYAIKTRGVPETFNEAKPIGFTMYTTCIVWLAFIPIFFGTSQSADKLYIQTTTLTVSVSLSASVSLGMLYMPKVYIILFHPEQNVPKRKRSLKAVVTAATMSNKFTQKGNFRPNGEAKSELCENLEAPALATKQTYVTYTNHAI

RA FLS [2] = assay: Chemokine and cytokine production by TNF stimulated RA FLS; format: cell-based, human
Description: Rheumatoid arthritis fibroblast-like synoviocytes (RA FLS) were isolated from synovial tissues derived from patients with RA when they underwent joint replacement surgery or synovectomy. Patients were age ≥18 years with active RA based on the ACR 1987 Revised Criteria and consent forms were completed by the patients before surgery. The study protocol was approved by the institutional review board at TokyoMedical andDental University, Tokyo, Japan and are in accordance with the principles of the Declaration of Helsinki. RA FLS were cultured in DMEM supplemented with 10% FBS, 100 U/mL penicillin, and 100 μg/mL streptomycin in a humidified 5% CO2 incubator. All experiments used proliferating RA FLS.
as §1
(§2) In the pathogenesis of rheumatoid arthritis, fibroblast-like synoviocytes (RA FLS) are a primary source of inflammatory cytokines and chemokines in inflamed joints. The immunomodulatory effects and cytotoxicity of compound 1-1 on RA FLS was analyzed. […] To assess the synergistic effect of compound 1-1 with DEX in RA FLS, IL-6 and CXCL8 suppression was analyzed by co-titrating DEX and compound 1-1 in cultures with TNF stimulated RA FLS (FIG. 7A, B).

RA FLS [3] = assay: Synergy of compound 1-1 with DEX in TNF stimulated RA FLS (isobologram); format: cell-based, human
Procedure: Drug synergy analysis was performed using lsobologram plots which were calculated according to reported procedures to compute IC50 and determine synergism. IC50 is computed from the median effect equation. Synergism analysis is carried out using the Combination index (Cl)-isobol method. Data analysis was performed using the CompuSyn software available on combisyn.com, Detailed methodology was used as described in a prior report. […] This is followed by Cl-isobol method to quantitatively assess the synergism between these inhibitor drugs. […] From the median effect equation, the estimated dose (i.e., D) necessary to produce the inhibition (i.e., Fa, Fu) obtained by the combination was calculated. […]
as §2

RA FLS [4] = assay: Cell viability of RA FLS by WST-8 assay; format: cell-based, human; conditions: WST-8 assay (FIG. 6F)
Procedure: Two types of tetrazolium were used for viability assays. For THP-1 cells, the cells were dispensed in 96-well plates (10^5 cells/200 μL/ well) and treated with 5 Oil of each compound. After 18 h of incubation, 0.5 mg/ml 3[4,5-dimethylthiazol-2-yl]-2,5-dipheyl tetrazolium bromide (MTT; Thermo Fisher Scientific) in assay media was added to each well at a final concentration of (0.5 mg/ml) and further incubated for 4-6 h. The absorbances at 570 and 650 nm were measured by a Tecan Infinite M200 plate reader, For RA FLS, the cells were dispersed into 96-well flat bottom plates (104/200 μL/well) and incubated overnight. The next day, RA FLS were treated with 5 μM of each compound for 18 h of incubation. Ten μl of WST-8 [2-(2-methoxy-4-nitrophenyl)-3-(4-nitrophenyl)-5-(2,4-disulfophewnyl)-2H-tetrazolium, monosodium salt] solution was added to each well and the cells were further incubated for 2-4 h. The absorbance was measured at 450 nm with Bio-Rad iMark plate reader (Bio-Rad Laboratories Inc., Hercules, CA, Unites States).

Structure (SMILES): Cc1ccc(-n2ncc3c(NC4CCCCC4)ncnc32)c(C)c1 [Compound 1-1]
- pIC50 (THP-1 cells): 6.72
- Modulation of mGluR4 [1]: positive allosteric modulator
- CCL2 production induced by TNF (RA FLS [2]; TNF 1 ng/ml overnight): dose-dependently suppressed
- CXCL1 production induced by TNF (RA FLS [2]; TNF 1 ng/ml overnight): dose-dependently suppressed
- CXCL8 production induced by TNF (RA FLS [2]; TNF 1 ng/ml overnight): dose-dependently suppressed
- IL-6 production induced by TNF (RA FLS [2]; TNF 1 ng/ml overnight): dose-dependently suppressed
- MMP-3 production induced by TNF (RA FLS [2]; TNF 1 ng/ml overnight): not
- IC50 in RA FLS (RA FLS [2]; comparable to that in THP-1): micromolar level
- Synergistic effect with DEX, CXCL8 release (RA FLS [3]; isobologram (FIG. 7C)): synergistic effects
- Synergistic effect with DEX, IL-6 release (RA FLS [3]; isobologram (FIG. 7D)): synergistic effects
- Cytotoxicity in RA FLS (RA FLS [4]): low cytotoxicity
